Results taken from US20260199323A1, “LIGAND COMPOUNDS FOR E3 UBIQUITIN LIGASE, PROTEIN DEGRADERS DEVELOPED ON BASIS OF LIGAND COMPOUNDS, AND USES THEREOF” (GLUETACS THERAPEUTICS (SHANGHAI) CO., LTD., priority 2021, published 2026).
Read-outs that look alike come from different tables or passages of the source.

Key:
[1] = test system: NCI-H1975; assay: CCK-8 tumor cell proliferation, NCI-H1975; type: cell-based, Human; conditions: for IC50: Homo sapiens, Table 15, ALK inhibitor based, NCI-H1975, read-out: IC50 inhibiting proliferation of tumor cells, NCI-H1975; for IC50 for inhibiting the proliferation of tumor cells, H1975: Table 11, designed based on EGFR inhibitors
Protocol: (§1) The tumor cells used herein were cultured in a cell culture medium listed in table 4 at 37° C. in an incubator with 5% CO2. Prior to experimentation, all cells used were correctly identified by STR profiling, and tested negative for mycoplasma through routine screenings.
(§2) IC50 values of the compounds of the present disclosure (including the compounds in Tables 1 and 3, and compounds of examples) were measured using the Meilun Cell Counting Kit-8 kit from Dalian Meilun Biotech Co., Ltd. Assay details are as follows: tumor cells were seeded in a 96-well plate at a density listed in Table 5. After 24 h, 100 μL of the inoculated cells were treated with 0.5 μL of the compounds of the present disclosure (including the compounds in Tables 1 and 3, and compounds of examples) at 10 different successively decreasing concentrations (starting at the highest concentration of 10 μM; 5-fold serial dilutions). After the cells were treated with the compounds of the present disclosure for a period of time, the cell viability detection reagent was added to the culture medium for cell viability assessment according to the instructions provided with the CCK-8 kit. […] The growth inhibition of the compounds of the present disclosure on cells was plotted by Prism Graphpad software, and the IC50 values of the compounds of the present disclosure were calculated therefrom.

[2] = test system: PC-9; assay: CCK-8 tumor cell proliferation, PC-9; type: cell-based, Human; conditions: Homo sapiens, PC-9, read-out: IC50 inhibiting proliferation of tumor cells, PC-9
[3] = test system: SR; assay: CCK-8 tumor cell proliferation, SR; type: cell-based, Human; conditions: Homo sapiens; Table 15, ALK inhibitor based; SR; read-out: IC50 inhibiting proliferation of tumor cells, SR
Procedure, shortened: (§3)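 Viability determined colorimetrically with CCK-8 following compound treatment. Dosing began 24 h post-plating using ten 5-fold dilutions capped at 10 μM; growth-inhibition curves yielded IC50.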

[4] = test system: MDA-MB-231; assay: CCK-8 tumor cell proliferation, MDA-MB-231; type: cell-based, Human; conditions: Homo sapiens, MDA-MB-231, read-out: IC50 inhibiting proliferation of tumor cells, MDA-MB-231
Procedure, shortened: as §3

[5] = test system: CCRF-CEM; assay: CCK-8 tumor cell proliferation, CCRF-CEM; type: cell-based, Human; parameters: IC50 for inhibiting the proliferation of tumor cells, CCRF-CEM: scale not given here; conditions: for IC50: Homo sapiens, CCRF-CEM, read-out: IC50 inhibiting proliferation of tumor cells, CCRF-CEM
Procedure, shortened: as §3

[6] = test system: Vcap; assay: CCK-8 tumor cell proliferation, Vcap; type: cell-based, Human; conditions: for IC50: Homo sapiens, VCaP, Table 18, FAK inhibitor based, Vcap, read-out: IC50 inhibiting proliferation of tumor cells, Vcap
Protocol: as §1, §2

[7] = test system: Mino; assay: CCK-8 tumor cell proliferation, Mino; type: cell-based, Human; conditions: Homo sapiens; Table 18, FAK inhibitor based; Mino; read-out: IC50 inhibiting proliferation of tumor cells, Mino
Procedure, shortened: as §3

[8] = test system: SW620; assay: CCK-8 tumor cell proliferation, SW620; type: cell-based, Human; conditions: Homo sapiens, SW-620; Table 18, FAK inhibitor based; SW620; read-out: IC50 inhibiting proliferation of tumor cells, SW620
Procedure, shortened: as §3

[9] = test system: MM.1S; assay: CCK-8 tumor cell proliferation, MM.1S; type: cell-based; conditions: Homo sapiens, MM1.S; Table 18, FAK inhibitor based; MM.1S; read-out: IC50 inhibiting proliferation of tumor cells, MM.1S
Protocol: as §1, §2

[10] = test system: CAL-62; assay: CCK-8 tumor cell proliferation, CAL-62; type: cell-based, Human; parameters: IC50 for inhibiting the proliferation of tumor cells, CAL-62: scale not given here; conditions: Table 11, designed based on EGFR inhibitors; 72 h
Procedure, shortened: as §3

[11] = test system: LNcap; assay: CCK-8 tumor cell proliferation, LNcap; type: cell-based, Human; conditions: Homo sapiens; Table 19, IRAK4 inhibitor based; Lncap; read-out: IC50 inhibiting proliferation of tumor cells, Lncap
Protocol: as §1, §2

[12] = test system: Jurkat; assay: CCK-8 tumor cell proliferation, Jurkat; type: cell-based, Human; conditions: Homo sapiens, Table 19, IRAK4 inhibitor based, read-out: IC50 inhibiting proliferation of tumor cells, Jurkat
Procedure, shortened: as §3

[13] = Table 7, designed based on BTK inhibitors, 96 h

## C[C@@H](Oc1cc(-c2cnn(C3CCN(Cc4ccc5c(c4)CN(C4CCC(=O)NC4=O)C5=O)CC3)c2)cnc1N)c1c(Cl)ccc(F)c1Cl (stereo partly drawn) [GT-02974, 3-(5-((4-(4-(6-amino-5-((R)-1-(2,6-dichloro-3-fluorophenyl)ethoxy)pyridin-3-yl)-1H-pyrazol-1-yl)piperidin-1-yl)methyl)-1-oxoisoindolin-2-yl)piperidine-2,6-dione]
[1]
  IC50: 1 to 5 µM
[2]; Table 15, ALK inhibitor based
  IC50: 1 to 5 µM
[3]
  IC50: 0.05 to 0.1 µM
[4]; Table 15, ALK inhibitor based
  IC50: 1 to 5 µM

## Nc1ncnc2c1c(-c1ccc(Oc3ccccc3)cc1)nn2C1CCN(Cc2cc(F)c3c(c2)CN(C2CCC(=O)NC2=O)C3=O)CC1 (stereo not drawn) [GT-03473, 3-(5-((4-(4-amino-3-(4-phenoxyphenyl)-1H-pyrazolo[3,4-d]pyrimidin-1-yl)piperidin-1-yl)methyl)-7-fluoro-1-oxoisoindolin-2-yl)piperidine-2,6-dione]
[1]; [13]
  IC50 for inhibiting the proliferation of tumor cells, NCI-H1975: A+
[5]; [13]
  IC50 for inhibiting the proliferation of tumor cells, CCRF-CEM: A+
[6]; [13]
  IC50 for inhibiting the proliferation of tumor cells, Vcap: A+

## O=C1CCC(N2Cc3cc(CN4CCN(c5ccc(-c6ccc7c(c6)C(=O)N(C(C(=O)Nc6nccs6)c6cc(F)ccc6O)C7)cc5)CC4)ccc3C2=O)C(=O)N1 (stereo not drawn) [GT-03503, 2-(6-(4-(4-((2-(2,6-dioxopiperidin-3-yl)-1-oxoisoindolin-5-yl)methyl)piperazin-1-yl)phenyl)-1-oxoisoindolin-2-yl)-2-(5-fluoro-2-hydroxyphenyl)-N-(thiazol-2-yl)acetamide]
[1]; 96 h
  IC50 for inhibiting the proliferation of tumor cells, H1975: A+

## Cc1cc(Nc2ncc(Cl)c(Nc3ccccc3S(=O)(=O)C(C)C)n2)c(OC(C)C)cc1N1CCC(N(C)Cc2ccc3c(c2)CN(C2CCC(=O)NC2=O)C3=O)CC1 (stereo not drawn) [GT-03530, 3-(5-(((1-(4-((5-chloro-4-((2-(isopropylsulfonyl)phenyl)amino)pyrimidin-2-yl)amino)-5-isopropoxy-2-methylphenyl)piperidin-4-yl)(methyl)amino)methyl)-1-oxoisoindolin-2-yl)piperidine-2,6-dione]
[1]
  IC50: 1 to 5 µM
[2]; Table 15, ALK inhibitor based
  IC50: 0.5 to 1 µM
[3]
  IC50: < 0.05 µM
[4]; Table 15, ALK inhibitor based
  IC50: 0.5 to 1 µM

## CN(c1nccnc1CNc1nc(Nc2ccc(N3CCC(N4CCN(Cc5ccc6c(c5)CN(C5CCC(=O)NC5=O)C6=O)CC4)CC3)cc2)ncc1C(F)(F)F)S(C)(=O)=O (stereo not drawn) [GT-03706, N-(3-(((2-((4-(4-(4-((2-(2,6-dioxopiperidin-3-yl)-1-oxoisoindolin-5-yl)methyl)piperazin-1-yl)piperidin-1-yl)phenyl)amino)-5-(trifluoromethyl)pyrimidin-4-yl)amino)methyl)pyrazin-2-yl)-N-methylmethanesulfonamide]
[7]
  IC50: 0.1 to 0.5 µM
[2]; Table 18, FAK inhibitor based
  IC50: 1 to 5 µM
[5]; Table 18, FAK inhibitor based
  IC50: 0.1 to 0.5 µM
[6]
  IC50: 0.1 to 0.5 µM
[4]; Table 18, FAK inhibitor based
  IC50: < 0.05 µM
[8]
  IC50: 0.5 to 1 µM

## CNC(=O)c1ccccc1Nc1cc(Nc2ccc(N3CCN(Cc4cc5c(cc4F)C(=O)N(C4CCC(=O)NC4=O)C5)CC3)cc2OC)ncc1C(F)(F)F (stereo not drawn) [GT-03716, 2-((2-((4-(4-((2-(2,6-dioxopiperidin-3-yl)-6-fluoro-1-oxoisoindolin-5-yl)methyl)piperazin-1-yl)-2-methoxyphenyl)amino)-5-(trifluoromethyl)pyridin-4-yl)amino)-N-methylbenzamide]
[7]
  IC50: < 0.05 µM
[2]; Table 18, FAK inhibitor based
  IC50: 1 to 5 µM
[9]
  IC50: < 0.05 µM
[5]; Table 18, FAK inhibitor based
  IC50: < 0.05 µM
[6]
  IC50: < 0.05 µM
[4]; Table 18, FAK inhibitor based
  IC50: < 0.05 µM
[8]
  IC50: < 0.05 µM

## CN(Cc1ccc2c(c1F)CN(C1CCC(=O)NC1=O)C2=O)C1CCN(c2ccc(Nc3ncc4nc(Nc5ccccc5)n(C5CCCC5)c4n3)cc2)CC1 (stereo not drawn) [GT-03858, 3-(5-(((1-(4-((9-cyclopentyl-8-(phenylamino)-9H-purin-2-yl)amino)phenyl)piperidin-4-yl)(methyl)amino)methyl)-4-fluoro-1-oxoisoindolin-2-yl)piperidine-2,6-dione]
[1]; 96 h
  IC50 for inhibiting the proliferation of tumor cells, H1975: A+

## COc1cc(N2CCC(N(C)Cc3ccc4c(c3)CN(C3CCC(=O)NC3=O)C4=O)CC2)c(C)cc1Nc1ncc(Br)c(Nc2ccc3nccnc3c2P(C)(C)=O)n1 (stereo not drawn) [GT-03924, 3-(5-(((1-(4-((5-bromo-4-((5-(dimethylphosphoryl)quinoxalin-6-yl)amino)pyrimidin-2-yl)amino)-5-methoxy-2-methylphenyl)piperidin-4-yl)(methyl)amino)methyl)-1-oxoisoindolin-2-yl)piperidine-2,6-dione]
[1]; 96 h
  IC50 for inhibiting the proliferation of tumor cells, H1975: A+
[10]
  IC50 for inhibiting the proliferation of tumor cells, CAL-62: A+

## COc1cc(N2CCC(N(C)Cc3ccc4c(c3F)CN(C3CCC(=O)NC3=O)C4=O)CC2)c(C)cc1Nc1ncc(Br)c(Nc2ccc3nccnc3c2P(C)(C)=O)n1 (stereo not drawn) [GT-03925, 3-(5-(((1-(4-((5-bromo-4-((5-(dimethylphosphoryl)quinoxalin-6-yl)amino)pyrimidin-2-yl)amino)-5-methoxy-2-methylphenyl)piperidin-4-yl)(methyl)amino)methyl)-4-fluoro-1-oxoisoindolin-2-yl)piperidine-2,6-dione]
[1]; 96 h
  IC50 for inhibiting the proliferation of tumor cells, H1975: A+
[10]
  IC50 for inhibiting the proliferation of tumor cells, CAL-62: A+

## COc1cc(N2CCC(N(C)Cc3cc4c(cc3F)C(=O)N(C3CCC(=O)NC3=O)C4)CC2)c(C)cc1Nc1ncc(Br)c(Nc2ccc3nccnc3c2P(C)(C)=O)n1 (stereo not drawn) [GT-03926, 3-(5-(((1-(4-((5-bromo-4-((5-(dimethylphosphoryl)quinoxalin-6-yl)amino)pyrimidin-2-yl)amino)-5-methoxy-2-methylphenyl)piperidin-4-yl)(methyl)amino)methyl)-6-fluoro-1-oxoisoindolin-2-yl)piperidine-2,6-dione]
[1]; 96 h
  IC50 for inhibiting the proliferation of tumor cells, H1975: A+

## COc1cc(N2CCC(N(C)Cc3cc(F)c4c(c3)CN(C3CCC(=O)NC3=O)C4=O)CC2)c(C)cc1Nc1ncc(Br)c(Nc2ccc3nccnc3c2P(C)(C)=O)n1 (stereo not drawn) [GT-03927, 3-(5-(((1-(4-((5-bromo-4-((5-(dimethylphosphoryl)quinoxalin-6-yl)amino)pyrimidin-2-yl)amino)-5-methoxy-2-methylphenyl)piperidin-4-yl)(methyl)amino)methyl)-7-fluoro-1-oxoisoindolin-2-yl)piperidine-2,6-dione]
[1]; 96 h
  IC50 for inhibiting the proliferation of tumor cells, H1975: A+
[10]
  IC50 for inhibiting the proliferation of tumor cells, CAL-62: A+

## CC(C)(O)c1cc2nc(C3CCN(Cc4cc5c(cc4F)C(=O)N(C4CCC(=O)NC4=O)C5)CC3)sc2cc1NC(=O)c1cccc(C(F)(F)F)n1 (stereo not drawn) [GT-04506, N-(2-(1-((2-(2,6-dioxopiperidin-3-yl)-6-fluoro-1-oxoisoindolin-5-yl)methyl)piperidin-4-yl)-5-(2-hydroxypropan-2-yl)benzo[d]thiazol-6-yl)-6-(trifluoromethyl)picolinamide]
[11]
  IC50: 0.1 to 0.5 µM
[5]; Table 19, IRAK4 inhibitor based
  IC50: 0.1 to 0.5 µM
[12]
  IC50: 0.05 to 0.1 µM
